Data taken from patent US10364249B2, “Azatriangulenium salts as PET-quenched fluorescent probes” (KØBENHAVNS UNIVERSITET, priority 2013, dated 2019).
Like-named read-outs stand apart in the source and are kept apart here.

How the values were obtained:
Assay type in all cases: physicochemical
[1] = Photophysical properties and pKa of DAOTA dyes, fluorescence intensity at different pH, 6% DMSO in PBS buffer; conditions: for pKa: 6% DMSO in PBS buffer solution, normalized fluorescence intensity at 588 nm at different pH, sigmoidal fits (FIG. 8)
Excerpt: FIG. 6. Absorption spectra of MR-68_DAOTA measured in 6% DMSO in PBS buffer solution. Circles (o) represent the absorption spectrum of the protonated form (measured at acidic conditions) and crosses (x) represent the absorption spectrum of the deprotonated form (measured at basic conditions).
FIG. 7. Emission spectra of MR-68_DAOTA measured in 6% DMSO in PBS buffer solution. Circles (o) represent the absorption spectrum of the protonated form (measured at acidic conditions) and crosses (x) represent the absorption spectrum of the deprotonated form (measured at basic conditions).
FIG. 8. […] The solid lines are sigmoidal fits to the experimental data.
(§1) Emission spectroscopy was performed in front-face set-up for sensor spot samples and in a conventional L-shape set-up for measuremetns in solution. A Perkin-Elmer LS50B and a Horiba Fluorolog 3 were used interchangeably. Intensity based sensor measurements were only performed on the LS50B platform. Fluorescence lifetime based sensor measurements were only performed on the Fluorolog 3. Absorption spectroscopy was performed on a Perkin Elmer Lambda1050, with integrating sphere (for sensor spots) and with a 3-detector module for solution samples.

[2] = Ratiometric emission of pH sensor spot with dyes bound into SOL-GEL-matrix at different pH; conditions: for pKa from ratiometric emission signal: with R1C
Procedure: FIG. 9. Emission spectra of a pH sensor spot loaded with I1C (signal at ca. 590 nm) and R1C (signal at ca. 650 nm) covalently bound into the SOL-GEL-matrix recorded at different pH values (solid line: pH 2.48, circles: pH 6.26, crosses: 9.89).
as §1
The compounds according to 6 or 7 are mixed into either the ETEOS or the GPTMS gel component 1 h after mixing of the materials described. Subsequently, the ETEOS or the GPTMS gel components are mixed. The two components are then mixed in 1:1 molar ratio and left at a stirring table for no less than 3 days. The dyes 6 or 7 are added in an amount so that a final concentration of 0.1 mM of dye is obtained in the final GPTMS-ETEOS mixture. The resulting GPTMS-ETEOS-dye mixture is then deposited and cured at 110° C. for 3-4 hours.

[3] = Absorption and emission spectra, photophysical properties of pH-responsive triangulenium dyes in solution; parameters: λmax (wavelength of maximum absorption) / λem (wavelength of maximum emission): unit not given here; conditions: for pKa / λem (wavelength of maximum emission) / λmax (wavelength of maximum absorption): in solution; for ϕfl- (φfl-off, fluorescence quantum yield, off-state): off-state (quenched); for ϕfl- (φfl-on, fluorescence quantum yield, on-state): on-state (not quenched)
Procedure: Absorption and emission spectrum of the prepared triangulenium compounds of Formula (I) were measured and their photophysical properties are compiled in table 2.
pKa is −log10 of the acid dissociation constant, Ka, and is a quantitative measure of the strength of an acid in solution. λmax denotes the wavelength wherein maximum absorption is obtained. λem denotes the wavelength wherein maximum emission is obtained. φfl-on and φfl-off are the fluorescence quantum yields, wherein the responsive fluorescent compounds are in their on-state (not quenched) and off-state (quenched), respectively. Ion/Ioff is the ratio between φfl-on and φfl-off.
All disclosed absorption and emission spectrum measurement shown herein are measured as follows:
as §1

[4] = Readout and chemical stability of optical sensor of DMQA+ and 4g in ORMOSIL matrix
Procedure: In order to validate the sensor performance, different stability tests were performed. One critical parameter for an optical sensor is known to be the read-out stability. Another critical parameter for optical sensors is the chemical stability.

[5] = Comparison of solution and sol-gel spectra and titration curves of 4g; conditions: upon attaching to the matrix material
Excerpt: The arrow indicates the change from pH˜11 to pH˜1.

[6] = first value of cell, protonated form
[7] = second value of cell, deprotonated form
[8] = covalently bound into the SOL-GEL-matrix

Molecule | η, quenching efficiency of the fluorescence intensity [1] | pKa [1] | εmax, molar absorption coefficient [1, 6] | λ max, wavelength at the maximum fluorescence intensity [1, 6] | λabs max, wavelength at maximum absorption of the lowest energy transition [1, 6] | εmax, molar absorption coefficient [1, 7] | λ max, wavelength at the maximum fluorescence intensity [1, 7] | λabs max, wavelength at maximum absorption of the lowest energy transition [1, 7] | Ion/Io (Ion/Ioff, ratio between φfl-on and φfl-off) [3] | pKa [3] | λem (wavelength of maximum emission) [3] | λmax (wavelength of maximum absorption) [3] | ϕfl- (φfl-off, fluorescence quantum yield, off-state) [3] | ϕfl- (φfl-on, fluorescence quantum yield, on-state) [3] | other results
CN1c2cccc3c2C2c4c(cccc4N(c4cccc(O)c4)c4cccc1c42)O3 (stereo not drawn) | 99% | 8.5 | 13600 M⁻¹ cm⁻¹ | 590/590 nm | 554 nm | 13500 M⁻¹ cm⁻¹ | 590/590 nm | 559 nm |  |  |  |  |  |  | 
8-(1-methyl-1-propyl-3-(3-(triethoxysilyl)propyl)urea)-4,8-diazatriangulenium-4-(4-(methylsulfonyl)phenolate) [Compound I2C] |  |  |  |  |  |  |  |  |  |  |  |  |  |  | pKa from ratiometric emission signal [2, 8]: 5.4
8-(1-methyl-1-propyl-3-(3-(triethoxysilyl)propyl)urea)-4,8-diazatriangulenium-4-(4-(trifluoromethyl)phenolate) [Compound I1C] |  |  |  |  |  |  |  |  |  |  |  |  |  |  | emission signal ([2]; pH sensor spot, covalently bound into the SOL-GEL-matrix): ca. 590 nm; pKa from ratiometric emission signal [2, 8]: 6.3
CCO[Si](CCCNC(=O)N(C)CCCn1c2cccc(OC)c2[c+]2c3c(OC)cccc3n(CCCN(C)C(=O)NCCC[Si](OCC)(OCC)OCC)c3cccc1c32)(OCC)OCC [Compound R1C, 5,9-bis(4,4-diethoxy-10-methyl-9-oxo-3-oxa-8,10-diaza-4-silatridecan-13-yl)-1,13-dimethoxy-5,9-dihydro-13bH-quinolino[2,3,4-kl]acridin-13b-ylium hexafluorophosphate] |  |  |  |  |  |  |  |  |  |  |  |  |  |  | emission signal [2]: ca. 650 nm
CN1c2cccc3c2C2c4c(cccc4N(c4cc(C(F)(F)F)ccc4O)c4cccc1c42)O3 (stereo not drawn) [MR-66_DAOTA] | >99% | 6.2 | 16600/16600 M^−1cm^−1 | 585 nm | 553 nm | 16600/16600 M^−1cm^−1 | 588 nm | 558 nm |  |  |  |  |  |  | 
CN1c2cccc3c2C2c4c(cccc4N(c4cc(O)cc(C(F)(F)F)c4)c4cccc1c42)O3 (stereo not drawn) [MR-67.1_DAOTA] | 99% | 7.3 | 14700 M⁻¹ cm⁻¹ | 586 nm | 553 nm | 14300 M⁻¹ cm⁻¹ | 588 nm | 557 nm |  |  |  |  |  |  | 
CN1c2cccc3c2C2c4c(cccc4N(c4ccc(O)cc4)c4cccc1c42)O3 (stereo not drawn) [MR-93_DAOTA] | >99% | 8.6 | 14400 M⁻¹ cm⁻¹ | 591/591 nm | 555 nm | 14100 M⁻¹ cm⁻¹ | 591/591 nm | 560 nm |  |  |  |  |  |  | 

Continued, in another order:

η, quenching efficiency of the fluorescence intensity [1] | pKa [1] | εmax, molar absorption coefficient [1, 6] | λ max, wavelength at the maximum fluorescence intensity [1, 6] | λabs max, wavelength at maximum absorption of the lowest energy transition [1, 6] | εmax, molar absorption coefficient [1, 7] | λ max, wavelength at the maximum fluorescence intensity [1, 7] | λabs max, wavelength at maximum absorption of the lowest energy transition [1, 7] | Ion/Io (Ion/Ioff, ratio between φfl-on and φfl-off) [3] | pKa [3] | λem (wavelength of maximum emission) [3] | λmax (wavelength of maximum absorption) [3] | ϕfl- (φfl-off, fluorescence quantum yield, off-state) [3] | ϕfl- (φfl-on, fluorescence quantum yield, on-state) [3] | Molecule | other results
 |  |  |  |  |  |  |  | ~50 | 6.9 | 558 | 541 | >0.5% | 8% | Oc1ccccc1N1c2cccc3c2C2c4c(cccc4Oc4cccc1c42)O3 [Compound 3b, N-(2-hydroxyphenyl)-azadioxatriangulenium tetrafluoroborat] | 
 |  |  |  |  |  |  |  | ~50 | 7.3 | 558 | 540 | >0.5% | 8% | Oc1cccc(N2c3cccc4c3C3c5c(cccc5Oc5cccc2c53)O4)c1 [Compound 3c, N-(3-hydroxyphenyl)-azadioxatriangulenium tetrafluoroborat] | 
 |  |  |  |  |  |  |  | ~50 | 8.3 | 563 | 540 | >0.5% | 2% | Oc1ccc(N2c3cccc4c3C3c5c(cccc5Oc5cccc2c53)O4)cc1 [Compound 3d] | 
 |  |  |  |  |  |  |  |  |  | 590 | 557 |  |  | CCCCCCCCCCCCN1c2cccc3c2C2c4c(cccc4N(c4cc(F)ccc4O)c4cccc1c42)O3 (stereo not drawn) [Compound 4f, 4-dodecyl-8-(5-fluoro-2-hydroxyphenyl)-4,8-diaza-12-oxa-4,8,12,12c-tetrahydro-dibenzo[cd,mn]-pyrenylium] | 
 |  |  |  |  |  |  |  | ~100 | 3.4 | 590 | 557 | 6% | 26% | CCCCCCCCCCCCN1c2cccc3c2C2c4c(cccc4N(c4cc(S(C)(=O)=O)ccc4O)c4cccc1c42)O3 (stereo not drawn) [Compound 4g, 4-dodecyl-8-(2-hydroxy-5-(methylsulfonyl)phenyl)-4,8-diaza-12-oxa-4,8,12,12c-tetrahydro-dibenzo[cd,mn]-pyrenylium] | responsiveness of ratiometric readout signal ([4]; constant illumination, low and high pH): maintains its responsiveness; ratiometric readout signal stable for ([4]; high and low pH): at least 16 hours; spectral change and pH response, solution versus sol-gel [5]: spectral change is minimal while the response to changing pH is maintained
 |  |  |  |  |  |  |  | ~50 | 6.5 | 590 | 557 |  |  | CCCCCCCCCCCCn1c2cccc3oc4cccc5c4[c+](c32)c2c1cccc2n5-c1cc(C(F)(F)F)ccc1O [Compound 4h, N-(2-hydroxy-5-(trifluoromethyI)phenyl)-N-dodecyl-diazaoxatriangulenium hexafluorophosphat] | 
